Tested on: E. coli
Test: Staining E. coli in spiked raw milk and saline at different temperatures, flow cytometry
Assay type: cell-based, Escherichia coli
Conditions: around 60° C. versus lower temperatures (40, 35, 25, 23° C.), 1 minute, pH 10.6
Protocol: Both solutions were spiked with E. coli bacteria by adding 200 μl bacterial culture to 45 ml solution. The staining composition was prepared with the same dilution of GelGreen™ (from Biotium) as described in Example 1, but this time into a Tris-saline solution (200 mM Trizma base, 150 mM NaCl, pH 10.6) further comprising 0.12 AU/ml liquid Alcalase® 2.4 L FG (from Novozymes). Incubations were as described in the previous examples, except that spiked raw milk samples were incubated at 60, 40 and 23° C. and spiked saline samples were incubated at 60, 35 and 25° C. for 1 minute. […] Each panel contains four quarters: Q1, Q2, Q3 and Q4. The counts provided in Q4 represent the number of cells given in each of these four quarters. […] The optimal range as disclosed herein is 40 to 70° C., a further preferred range is 60 to 68° C. and a highly preferred temperature point is 62° C.

SMILES: CN(C)c1ccc2cc3ccc(N(C)C)cc3[n+](CCCCCC(=O)NCCCOCCOCCOCCCNC(=O)CCCCC[n+]3c4cc(N(C)C)ccc4cc4ccc(N(C)C)cc43)c2c1.[I-].[I-] [GelGreen™]
- bacterial cells counted: more bacterial cells could be counted

— patent US11415493B2, “Detection of cells in a liquid sample” (DELTA INSTRUMENTS B.V., priority 2016, dated 2022)
